Reference: paper PMC12794274, “Therapeutic potential of Sheng-Xian-Tang in doxorubicin-induced chronic heart failure by regulation of phenylalanine metabolism disruption” (Chinese Medicine, 2026)
Several values for one entry are separate records, joined by “and”; a condition that tells them apart may be missing. Equal values may be shown once.

What was measured:
[1] = test system: DOX-induced chronic heart failure (CHF) rat model; assay: Echocardiography (LVEF%, LVFS%) in DOX-induced CHF rats; format: in vivo; conditions: DOX group, cumulative 15 mg/kg, day 39
Description: Experiment I, 48 rats were randomly divided into six groups: (1) the CON group; (2) the DOX group; (3) the DOX + enalapril (ENP, positive control, 1.8 mg/kg) group; (4) the DOX + SXT at low dose group (4 g/kg); (5) the DOX + SXT at middle dose group (8 g/kg); and […] the DOX + SXT at high dose group (16 g/kg). Except those rats in the CON group, the remaining rats received DOX at a 2.5 mg/kg per injection to a cumulative dose of 15 mg/kg. The dose of SXT for the low-dose group was set at 4 g/kg, based on the minimum human clinical daily dose (48.5 g, Table S2) converted to an equivalent rat dose using body surface area normalization (48.5 g/70 kg × 6.3 ≈ 4.4 g/kg, rounded to 4 g/kg). To evaluate a clear dose–response relationship, the medium and high doses were established at 8 g/kg and 16 g/kg, respectively, corresponding to 2 fold and 4 fold the low dose. This gradient dosing strategy is consistent with the Technical Guidelines for Pharmacodynamic Studies of Traditional Chinese Medicine and the Technical Guidelines for General Pharmacology Studies of Traditional Chinese Medicine and Natural Drugs, and is further supported by our previous study on the effective dose range of SXT in a rat model of doxorubicin-induced chronic heart failure. Heart function was monitored by echocardiography analysis at day 39, and the CHF model was considered to be successfully established when the left ventricular ejection fraction (LVEF%) values were reduced to 50%. Urinary samples were collected at five time points (0, 10, 20, 30, and 39 d), while fecal samples were collected before the rats were euthanized. Subsequently, the rats were anesthetized, and blood samples and heart and liver tissues were collected. All bio-samples were stored at − 80 °C until analysis.
Experiment II was conducted to specifically confirm the exacerbated cardiac abnormality of phenylalanine in the DOX-induced CHF rats. […] Heart function was detected as in the experiment I.
Echocardiographic (ECG) measurements were performed using M-mode tracings and continuous Doppler with a Vevo 2100 system (Visual Sonics, Toronto, ON, Canada). Rats were anesthetized with isoflurane prior to imaging. Cardiac function indices including left ventricular ejection fraction (LVEF%) and left ventricular fractional shortening (LVFS%) were measured and recorded.

Rat body weight = format: in vivo; conditions: DOX group vs CON group, experiment I
Description: Experiment I, 48 rats were randomly divided into six groups: (1) the CON group; (2) the DOX group; (3) the DOX + enalapril (ENP, positive control, 1.8 mg/kg) group; (4) the DOX + SXT at low dose group (4 g/kg); (5) the DOX + SXT at middle dose group (8 g/kg); and […] the DOX + SXT at high dose group (16 g/kg). Except those rats in the CON group, the remaining rats received DOX at a 2.5 mg/kg per injection to a cumulative dose of 15 mg/kg. The dose of SXT for the low-dose group was set at 4 g/kg, based on the minimum human clinical daily dose (48.5 g, Table S2) converted to an equivalent rat dose using body surface area normalization (48.5 g/70 kg × 6.3 ≈ 4.4 g/kg, rounded to 4 g/kg). To evaluate a clear dose–response relationship, the medium and high doses were established at 8 g/kg and 16 g/kg, respectively, corresponding to 2 fold and 4 fold the low dose. […] Heart function was monitored by echocardiography analysis at day 39, and the CHF model was considered to be successfully established when the left ventricular ejection fraction (LVEF%) values were reduced to 50%. […]

[2] = test system: cardiac tissues of DOX-induced CHF rats; assay: Heart histopathology (H&E, Masson) and TUNEL apoptosis detection; format: in vivo, rat; conditions: DOX group
Description: Cardiac tissues were fixed in 4% paraformaldehyde, embedded in paraffin, and sectioned at 4–5 μm thickness. Hematoxylin and eosin (H&E) staining was performed to assess histopathological changes, while Masson’s trichrome staining was used to evaluate cardiac fibrosis. Apoptosis in cardiac tissues was detected using a TUNEL assay kit (C1088, Beyotime, Shanghai, China).

DOX-induced CHF rats = assay: Serum biochemical parameters (BNP, CK, LDH, ALT, AST) by ELISA kits; format: in vivo, rat; conditions: DOX group, experiment I
Description: Serum biochemical parameters including brain natriuretic peptide (BNP), creatine kinase (CK), lactate dehydrogenase (LDH), alanine aminotransferase (ALT), and aspartate aminotransferase (AST) were measured using commercial ELISA kits (Nanjing Jiancheng Bioengineering Institute, Nanjing, China) according to the manufacturer's instructions. Superoxide dismutase (SOD), and malondialdehyde (MDA) levels in liver and heart tissues were measured using assay kits from […] Biotechnology (Changsha, China). Phenylalanine and tyrosine concentrations in the cell were determined using an ELISA kit from Abmart (Shanghai, China).

gut microbiota = assay: 16S rRNA sequencing of gut microbiota; format: in vivo, rat; conditions: DOX group vs CON group
Description: 16S rRNA sequencing and bioinformatics analysis were performed by OEbiotech Co. Ltd. (Shanghai, China). Total genomic DNA was extracted from cecal contents. The V3–V4 hypervariable region of the 16S rRNA gene was amplified using primers 343F and 798R. Clean reads were processed to remove primer sequences and clustered into operational taxonomic units (OTUs) at 97% similarity using Vsearch software. OTUs were annotated by comparison against the […]. Alpha diversity was assessed using the Simpson index. Beta diversity was evaluated using Bray–Curtis distances and visualized by principal coordinates analysis (PCoA). Differential abundance analysis of gut microbiota associated with DOX-induced CHF was performed using linear discriminant analysis effect size (LEfSe) and random forest algorithms.

heart tissues = assay: Transmission electron microscopy of heart tissue; format: in vivo, rat; conditions: experiment II; DOX alone, co-treatments vs DOX
Description: Freshly excised heart tissues were immediately fixed in 2.5% glutaraldehyde at 4 °C overnight. After washing with 0.1 M cacodylate trihydrate buffer, samples were post-fixed with 1% osmium tetroxide for 1 h. Tissues were then dehydrated through a graded ethanol series, incubated in acetone, and embedded in epoxy resin. Ultrathin sections were mounted on copper grids and imaged using a Hitachi HT7800 transmission electron microscope (Tokyo, Japan).

AML12 cells [3] = assay: AML12 cell viability (CCK8); format: cell-based
Description: (§1) Mouse hepatocellular cell lines (AML12), purchased from the Shanghai Cell Bank of Chinese Academy of Sciences (Shanghai, China), were cultured in Dulbecco’s Modified Eagle Medium (DMEM) supplemented with 10% fetal bovine serum (FBS) and 2 mM L-glutamine and 1% pyruvate and maintained at 37 °C in a […], 5% CO2 incubator. Cells were seeded at a density of 5 × 10^5 cells/well in 6-well plates. […] Cells’ survival rate was detected by Cell Counting Kit-8 (CCK8) Reagents (Thermo Scientific, Singapore).

[4] = test system: PAH activity in AML12 cells; format: cell-based
Description: Serum biochemical parameters including brain natriuretic peptide (BNP), creatine kinase (CK), lactate dehydrogenase (LDH), alanine aminotransferase (ALT), and aspartate aminotransferase (AST) were measured using commercial ELISA kits (Nanjing Jiancheng Bioengineering Institute, Nanjing, China) according to the manufacturer’s instructions. Superoxide dismutase (SOD), and malondialdehyde (MDA) levels in liver and heart tissues were measured using assay kits from Aifang Biotechnology (Changsha, China). Phenylalanine and tyrosine concentrations in the cell were determined using an ELISA kit from Abmart (Shanghai, China).
as §1

AML12 cells [5] = format: cell-based, mouse
Description: as §1

Question: For `COc1cccc2c1C(=O)c1c(O)c3c(c(O)c1C2=O)C[C@@](O)(C(=O)CO)C[C@@H]3O[C@H]1C[C@H](N)[C@H](O)[C@H](C)O1` [DOX, Doxorubicin], which LVFS [1] is on record?
Answer: Its LVFS is < 30% and 25.62%.

Question: What about the body weight (Rat body weight) of the same compound?
Answer: Its body weight is “significant reduction”.

Question: What about the “H&E and Masson's trichrome staining of cardiac tissue” value [2] of the same compound?
Answer: The value was “inflammatory infiltration and increased collagen deposition”.

Question: What about the “serum ALT and AST levels” value (DOX-induced CHF rats) of the same compound?
Answer: The value was “increased”.

Question: And the Muribaculaceae abundance (gut microbiota)?
Answer: The Muribaculaceae abundance was “decreased”.

Question: What about the “relative abundance of Proteobacteria” value (gut microbiota; p < 0.01) of the same compound?
Answer: The value was “significantly increased”.

Question: What about the “mitochondrial ultrastructure of heart (electron microscopy)” value (heart tissues) of the same compound?
Answer: The value was “mitochondrial shrinkage, increased membrane density, and marked reduction and shortening of cristae with focal vacuolization”.

Question: What about the cell viability (AML12 cells [3]) of the same compound?
Answer: The cell viability was “significant reduction”.

Question: What about the IC50 (AML12 cells [3]; Mus musculus, AML12, read-out: DOX concentration that caused 50% cell death (IC50)) of the same compound?
Answer: Its IC50 is 1 µM.

Question: What about the “phenylalanine levels in AML12 cells” value [4] of the same compound?
Answer: Its value is “significant increases”.

Question: What about the “phenylalanine metabolism (Phe level, Phe/Tyr ratio)” value ([4]; AML12 cells, DOX vs CON, neomangiferin vs DOX, dose-dependent) of the same compound?
Answer: The value was “significantly suppressed”.

Question: What about the MDA levels (AML12 cells [5]) of the same compound?
Answer: The MDA levels was “increase”.

Question: What about the SOD activity (AML12 cells [5]) of the same compound?
Answer: The SOD activity was “significant reduction”.
